Test results taken from patent US7985731B2, “Sugar chain added GLP-1 peptide” (Otsuka Chemical Holdings Co., Ltd., priority 2007, dated 2011).
Peptide text beside a SMILES is read from it. * marks the point of attachment. X1 = CC(=O)N[C@@H]1[C@@H](O)[C@H](O[C@@H]2O[C@H](CO)[C@@H](O[C@@H]3O[C@H](CO[C@H]4O[C@H](CO)[C@@H](O)[C@H](O)[C@@H]4O[C@@H]4O[C@H](CO)[C@@H](O[C@@H]5O[C@H](CO[C@]6(C(=O)O)C[C@H](O)[C@@H](NC(C)=O)[C@H]([C@H](O)[C@H](O)CO)O6)[C@H](O)[C@H](O)[C@H]5O)[C@H](O)[C@H]4NC(C)=O)[C@@H](O)[C@H](O[C@H]4O[C@H](CO)[C@@H](O)[C@H](O)[C@@H]4O[C@@H]4O[C@H](CO)[C@@H](O[C@@H]5O[C@H](CO[C@]6(C(=O)O)C[C@H](O)[C@@H](NC(C)=O)[C@H]([C@H](O)[C@H](O)CO)O6)[C@H](O)[C@H](O)[C@H]5O)[C@H](O)[C@H]4NC(C)=O)[C@@H]3O)[C@H](O)[C@H]2NC(C)=O)[C@@H](CO)O[C@H]1NC(=O)C*

What was measured:
C57BL/6JJcl mice = assay: Test Example 7: Oral Glucose Tolerance Test (OGTT); type: in vivo; settings: 9 nmol/kg intraperitoneal 30 minutes before glucose 1 mg/g oral
Procedure: After 30 minutes, a glucose solution was orally administered at a dose of 1 mg/g. Blood was collected from the orbits before the glucose administration and 30 minutes, 60 minutes and 120 minutes after the glucose administration. Blood-sugar levels were measured using ACCU-CHEK Aviva (Roche Diagnostics).
After the oral administration of the glucose solution to the mice fasted overnight, blood was collected over time, and blood-sugar levels were measured.
The correlation between the oligosaccharide chain structure and the activity was studied in mouse OGTT.

mouse GLP-1 receptor = target: T1, mouse GLP-1 receptor (Mus musculus, UniProt O35659); assay: Test Example 6: ability to synthesize cAMP in mouse GLP-1 receptor-expressing CHO-K1 cells; type: cell-based
T1 construct: expressed in transfected cells
T1 sequence (O35659 22-463): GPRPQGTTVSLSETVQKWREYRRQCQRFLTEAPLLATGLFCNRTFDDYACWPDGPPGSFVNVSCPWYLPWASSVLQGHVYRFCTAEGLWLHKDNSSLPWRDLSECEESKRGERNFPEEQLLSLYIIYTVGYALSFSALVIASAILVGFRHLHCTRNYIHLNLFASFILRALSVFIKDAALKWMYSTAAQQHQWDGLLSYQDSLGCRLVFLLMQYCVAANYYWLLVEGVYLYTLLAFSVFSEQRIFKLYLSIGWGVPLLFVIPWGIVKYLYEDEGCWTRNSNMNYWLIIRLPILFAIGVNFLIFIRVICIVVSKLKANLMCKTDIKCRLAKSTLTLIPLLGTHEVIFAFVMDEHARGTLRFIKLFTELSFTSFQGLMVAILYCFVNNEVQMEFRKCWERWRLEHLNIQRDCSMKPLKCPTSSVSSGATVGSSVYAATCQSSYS
Procedure: 1. Construction of Mouse GLP-1 Receptor-Expressing Vector
A mouse GLP1 receptor sense primer (5′-[…]-3′) (SEQ ID NO: 152) and a mouse GLP-1 receptor antisense primer (5′-[…]-3′) (SEQ ID NO: 153) capable of binding to the 5′ and 3′ ends of mouse GLP-1 receptor cDNA were separately synthesized. PCR was performed using Ex Taq polymerase (TaKaRa) with cDNA (Clone ID: 40046534, Open Biosystems) as a template. Specifically, 50 μL in total of reaction solution consisting of 1 μL of template cDNA (10 ng/μL), 4 μL of 2.5 mM dNTPs, 1 μL of primer solution mixtures (each 50 μM), 5 μL of ×10 Ex Taq polymerase Buffer, 0.25 μL of Ex Taq polymerase and 38.75 μL of sterilized water was used and allowed to react by 94° C. for 1 minute; 94° C. for 45 seconds, 55° C. for 1 minute and 72° C. for 2 minutes (35 cycles); and 72° C. for 10 minutes. The PCR reaction product was electrophoresed on 1% agarose gel, and the cDNA fragment was purified using Wizard SV Gel and PCR Clean-up System (Promega) and treated with restriction enzymes (EcoRI and NheI) to obtain mouse GLP-1 receptor cDNA.
To efficiently obtain cells highly expressing a mouse GLP-1 receptor, a pIRES-gfp vector was used as an expression vector. This vector was prepared by inserting, to a vector pEGFP-N1 (Clontech), an IRES gene-containing DNA fragment obtained by the restriction enzyme treatment (Sal I and BamHI) of pIRESpuro2 (Clontech).
The mouse GLP-1 receptor cDNA fragment was inserted to pIRES-gfp to thereby obtain a mouse GLP-1 receptor-expressing vector mGLP-1R/pIRES-gfp. The DNA sequence of the obtained vector was confirmed using ABI3100-Avant (Applied Biosystems).
2. Preparation of Mouse GLP-1 Receptor-Expressing CHO-K1 Cells
CHO-K1 cells (ATCC catalog No. CCL-61) were transfected with the obtained mGLP-1R/pIRES-gfp using FuGENE (registered trademark) (Roche) according to the instruction manual. The transfected CHO-K1 cells were cultured in RPMI1640 medium (Wako Pure Chemical Industries) containing 10% FCS (Hyclone) and penicillin-streptomycin (SIGMA). Drug selection was conducted by the addition of 1.0 mg/ml G418 (Wako Pure Chemical Industries). The drug resistance cells were sorted with a cell sorter (EPICS ALTRA, Beckman Coulter) using a GFP expression level as an index. After the sorting, the limiting dilution method was conducted to obtain cells highly expressing GFP, namely, cells highly expressing a mouse GLP-1 receptor. The obtained cells were used as mouse GLP-1 receptor-expressing CHO-K1 cells in the experiment shown below.
3. Analysis of Agonist Effect of Oligosaccharide Chain Added GLP-1 Peptide (Ability to Synthesize cAMP)
The mouse GLP-1 receptor-expressing CHO-K1 cells prepared in the preceding paragraph 2 were used to evaluate the agonist effect of the oligosaccharide chain added GLP-1 peptide using the ability to synthesize cAMP as an index.
The mouse GLP-1 receptor-expressing CHO-K1 cells were suspended at a concentration of 5×10^5 cells/ml in RPMI1640 medium containing 10% FCS. The cell suspension was seeded at a concentration of 100 μL per well to a flat-bottomed 96-well plate (Falcon) and cultured at 5% CO2 at 37° C. for 16 hours. The culture supernatant was discarded. The oligosaccharide chain added GLP-1 peptide dissolved in Krebs Ringer bicarbonate Buffer containing 2.5 mM glucose was added at a concentration of 100 μL/well and cultured at 37° C. for 30 minutes. The culture supernatant was immediately discarded. The amount of cAMP synthesized in the mouse GLP-1 receptor-expressing CHO-K1 cells was measured using cAMP ELISA Kit (GE Healthcare or Cayman) and used as an index for the agonist effect of the oligosaccharide chain added GLP-1 peptide on mouse GLP-1 receptors.
GLP-1 increases intracellular cAMP concentrations through the binding to its receptor and promotes insulin secretion. Thus, the activity of the oligosaccharide chain added GLP-1 peptide was evaluated using the ability to synthesize cAMP as an index. […]

Row | SMILES | effect of suppressing rise in blood-sugar levels in OGTT (C57BL/6JJcl mice) | cAMP synthesis activity compared with GLP-1 (in words) (mouse GLP-1 receptor)
1 | CC[C@H](C)[C@H](NC(=O)[C@H](Cc1ccccc1)NC(=O)[C@H](CCC(=O)O)NC(=O)[C@H](CCCCN)NC(=O)[C@H](C)NC(=O)[C@H](C)NC(=O)[C@H](CCC(N)=O)NC(=O)[C@H](CSCC(=O)N[C@@H]1O[C@H](CO)[C@@H](O[C@@H]2O[C@H](CO)[C@@H](O[C@@H]3O[C@H](CO[C@H]4O[C@H](CO)[C@@H](O)[C@H](O)[C@@H]4O[C@@H]4O[C@H](CO)[C@@H](O[C@@H]5O[C@H](CO[C@]6(C(=O)O)C[C@H](O)[C@@H](NC(C)=O)[C@H]([C@H](O)[C@H](O)CO)O6)[C@H](O)[C@H](O)[C@H]5O)[C@H](O)[C@H]4NC(C)=O)[C@@H](O)[C@H](O[C@H]4O[C@H](CO)[C@@H](O)[C@H](O)[C@@H]4O[C@@H]4O[C@H](CO)[C@@H](O[C@@H]5O[C@H](CO[C@]6(C(=O)O)C[C@H](O)[C@@H](NC(C)=O)[C@H]([C@H](O)[C@H](O)CO)O6)[C@H](O)[C@H](O)[C@H]5O)[C@H](O)[C@H]4NC(C)=O)[C@@H]3O)[C@H](O)[C@H]2NC(C)=O)[C@H](O)[C@H]1NC(C)=O)NC(=O)[C@H](CCC(=O)O)NC(=O)[C@H](CC(C)C)NC(=O)[C@H](Cc1ccc(O)cc1)NC(=O)[C@H](CO)NC(=O)[C@H](CO)NC(=O)[C@@H](NC(=O)[C@H](CC(=O)O)NC(=O)[C@H](CO)NC(=O)[C@@H](NC(=O)[C@H](Cc1ccccc1)NC(=O)[C@@H](NC(=O)CNC(=O)[C@H](CCC(=O)O)NC(=O)[C@H](C)NC(=O)[C@@H](N)Cc1c[nH]cn1)[C@@H](C)O)[C@@H](C)O)C(C)C)C(=O)N[C@@H](C)C(=O)N[C@@H](Cc1c[nH]c2ccccc12)C(=O)N[C@@H](CC(C)C)C(=O)N[C@H](C(=O)N[C@@H](CCCCN)C(=O)NCC(=O)N[C@@H](CCCNC(=N)N)C(=O)NCC(=O)O)C(C)C [Example 2, 22Cys GLP-1-disialo] (H-HAEGTFTSDVSSYLEC(X1)QAAKEFIAWLVKGRG-OH) | strong effect of suppressing rise in blood-sugar levels | activity equal to or more than that of the GLP-1
2 | CC[C@H](C)[C@H](NC(=O)[C@H](Cc1ccccc1)NC(=O)[C@H](CCC(=O)O)NC(=O)[C@H](CCCCN)NC(=O)[C@H](C)NC(=O)[C@H](C)NC(=O)[C@H](CCC(N)=O)NC(=O)CNC(=O)[C@H](CCC(=O)O)NC(=O)[C@H](CC(C)C)NC(=O)[C@H](Cc1ccc(O)cc1)NC(=O)[C@H](CO)NC(=O)[C@H](CO)NC(=O)[C@@H](NC(=O)[C@H](CC(=O)O)NC(=O)[C@H](CO)NC(=O)[C@@H](NC(=O)[C@H](Cc1ccccc1)NC(=O)[C@@H](NC(=O)CNC(=O)[C@H](CCC(=O)O)NC(=O)[C@H](C)NC(=O)[C@@H](N)Cc1c[nH]cn1)[C@@H](C)O)[C@@H](C)O)C(C)C)C(=O)N[C@@H](C)C(=O)N[C@@H](Cc1c[nH]c2ccccc12)C(=O)N[C@@H](CC(C)C)C(=O)N[C@H](C(=O)N[C@@H](CCCCN)C(=O)NCC(=O)N[C@@H](CCCNC(=N)N)C(=O)NCC(=O)N[C@@H](CSCC(=O)N[C@@H]1O[C@H](CO)[C@@H](O[C@@H]2O[C@H](CO)[C@@H](O[C@@H]3O[C@H](CO[C@H]4O[C@H](CO)[C@@H](O)[C@H](O)[C@@H]4O[C@@H]4O[C@H](CO)[C@@H](O[C@@H]5O[C@H](CO[C@]6(C(=O)O)C[C@H](O)[C@@H](NC(C)=O)[C@H]([C@H](O)[C@H](O)CO)O6)[C@H](O)[C@H](O)[C@H]5O)[C@H](O)[C@H]4NC(C)=O)[C@@H](O)[C@H](O[C@H]4O[C@H](CO)[C@@H](O)[C@H](O)[C@@H]4O[C@@H]4O[C@H](CO)[C@@H](O[C@@H]5O[C@H](CO[C@]6(C(=O)O)C[C@H](O)[C@@H](NC(C)=O)[C@H]([C@H](O)[C@H](O)CO)O6)[C@H](O)[C@H](O)[C@H]5O)[C@H](O)[C@H]4NC(C)=O)[C@@H]3O)[C@H](O)[C@H]2NC(C)=O)[C@H](O)[C@H]1NC(C)=O)C(=O)O)C(C)C [Example 5, 38Cys GLP-1-disialo] | strong effect of suppressing rise in blood-sugar levels | activity equal to or more than that of the GLP-1
3 | CC[C@H](C)[C@H](NC(=O)[C@H](Cc1ccccc1)NC(=O)[C@H](CCC(=O)O)NC(=O)[C@H](CSCC(=O)N[C@@H]1O[C@H](CO)[C@@H](O[C@@H]2O[C@H](CO)[C@@H](O[C@@H]3O[C@H](CO[C@H]4O[C@H](CO)[C@@H](O)[C@H](O)[C@@H]4O[C@@H]4O[C@H](CO)[C@@H](O[C@@H]5O[C@H](CO)[C@H](O)[C@H](O)[C@H]5O)[C@H](O)[C@H]4NC(C)=O)[C@@H](O)[C@H](O[C@H]4O[C@H](CO)[C@@H](O)[C@H](O)[C@@H]4O[C@@H]4O[C@H](CO)[C@@H](O[C@@H]5O[C@H](CO)[C@H](O)[C@H](O)[C@H]5O)[C@H](O)[C@H]4NC(C)=O)[C@@H]3O)[C@H](O)[C@H]2NC(C)=O)[C@H](O)[C@H]1NC(C)=O)NC(=O)[C@H](C)NC(=O)[C@H](C)NC(=O)[C@H](CCC(N)=O)NC(=O)CNC(=O)[C@H](CCC(=O)O)NC(=O)[C@H](CC(C)C)NC(=O)[C@H](Cc1ccc(O)cc1)NC(=O)[C@H](CO)NC(=O)[C@H](CO)NC(=O)[C@@H](NC(=O)[C@H](CC(=O)O)NC(=O)[C@H](CO)NC(=O)[C@@H](NC(=O)[C@H](Cc1ccccc1)NC(=O)[C@@H](NC(=O)CNC(=O)[C@H](CCC(=O)O)NC(=O)[C@H](C)NC(=O)[C@@H](N)Cc1c[nH]cn1)[C@@H](C)O)[C@@H](C)O)C(C)C)C(=O)N[C@@H](C)C(=O)N[C@@H](Cc1c[nH]c2ccccc12)C(=O)N[C@@H](CC(C)C)C(=O)N[C@H](C(=O)N[C@@H](CCCCN)C(=O)NCC(=O)N[C@@H](CCCNC(=N)N)C(=O)NCC(=O)O)C(C)C [Example 25, 26Cys GLP-1-asialo] | strong effect of suppressing rise in blood-sugar levels | activity equal to or more than that of the GLP-1
